Reference: patent US9125912B1, “Method of treating ulcerative colitis” (KING SAUD UNIVERSITY, priority 2015, dated 2015)

Tested on: ulcerative colitis induced by acetic acid
Experiment: Ulcerative colitis induced by acetic acid in rats, macroscopic parameters
Assay type: in vivo, Male Wistar rats
Settings: from ulcer index, oral once daily for 5 days before induction, extracts 400 mg/kg, volatile oil 50 mg/kg, dexamethasone 0.1 mg/kg
Excerpt: The extracts (total alcohol extract, total phenolic contents and volatile oil) of the three plants under investigation were freshly suspended in distilled water just before administration by the aid of Tween 80.
The extracts of Ocimum americanum, Ocimum basilicum and Ocimum basilicum var. thyrsiflora were independently administered to rats five days prior to ulcer induction. In detail, twelve experimental groups, each of 6 Male Wistar rats were used. Rats of groups 1 and 2 received the vehicle (5 mL/kg) and served as normal control and control colitis groups. […] Rats of groups 4-12 received the volatile oil extract, the total alcohol extract and the total phenolic extract of each of the three plants. Doses of 400 mg/kg of the total alcohol extract and the phenolic content were administered. Doses of 50 mg/kg of the volatile oil were administered. All medications were administered orally, once daily for 5 successive days and the last dose was administered 2 hours before colitis induction.
Animals were fasted overnight, with access to water ad libitum. Under ether anesthesia a solution of 2 mL (4%, v/v) acetic acid in saline was slowly infused into the colon through the polyethylene catheter 2 mm diameter that was inserted into the lumen of the colon via the anus to a distance of 8 cm. […]
The colon specimens were weighted and wet weight/length ratio was calculated for all the rats. The specimens were examined under a dissecting microscope and the lesion scores were quantified by scoring system (0-5).
Ulcer area was measured using plane glass square. Each cell on the glass square was 1 mm^2 in area and the number of cells was counted and the ulcer area was determined for each colon.
Ulcer index (UI) was measured by summing the lesion score and the ulcer area for each colon specimen. The curative ratio was determined according to the formula: Curative ratio=Control UI−Test UI/Control UI×100.
Data were expressed as mean±S. D. Statistical analysis was done by using SPSS 14. Statistical significance of differences between two means was assessed by unpaired Student's ‘t’ test. […]

In the case of `C[C@@H]1C[C@H]2[C@@H]3CCC4=CC(=O)C=C[C@]4(C)[C@@]3(F)[C@@H](O)C[C@]2(C)[C@@]1(O)C(=O)CO` [Dexamethasone], the “% Protection from control colitis” value is reported as 71.54%, the “% Protection from control colitis” value (listed as dexamesthasone) is reported as “about 71.54%” and the “% Protection from control colitis” value (listed as dexamethasone) is reported as 71.54%.
